pIC50, pKi: −log10 of the molar value.

In data set [1] the target is T1, 5-hydroxytryptamine receptor 6 (Homo sapiens, UniProt P50406). In words: Displacement of [3H]LSD from human 5HT6 receptor expressed in HEK293 cells. In kind it is cell-based.
Data set [2] deals with T1, 5-hydroxytryptamine receptor 6. In words: Binding affinity to 5HT6 receptor.
The target of data set [3] is 5-hydroxytryptamine receptor 7 (Homo sapiens, UniProt P34969). In words: Displacement of [3H]LSD from human 5HT7 receptor expressed in cells. In kind it is cell-based. (In general: In a radioligand displacement assay an active substance lowers the binding of a labelled ligand.)
The target of a further data set is T2, D(4) dopamine receptor (Homo sapiens, UniProt P21917).
T2 sequence (P21917 whole entry): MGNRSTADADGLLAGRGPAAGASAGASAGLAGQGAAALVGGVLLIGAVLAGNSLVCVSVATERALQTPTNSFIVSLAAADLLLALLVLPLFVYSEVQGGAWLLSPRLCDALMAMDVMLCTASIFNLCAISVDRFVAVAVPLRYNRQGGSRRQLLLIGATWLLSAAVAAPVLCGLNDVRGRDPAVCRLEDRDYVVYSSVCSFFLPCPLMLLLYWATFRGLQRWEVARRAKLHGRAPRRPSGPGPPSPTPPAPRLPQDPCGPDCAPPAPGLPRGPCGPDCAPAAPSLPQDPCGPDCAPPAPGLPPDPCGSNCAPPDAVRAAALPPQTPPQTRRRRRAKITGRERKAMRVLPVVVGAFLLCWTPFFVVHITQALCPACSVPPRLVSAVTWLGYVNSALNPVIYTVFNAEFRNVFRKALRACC
In words: Displacement of [3H]spiperone from human dopamine D4 receptor expressed in cells. Type of data set: cell-based.

The target of data set [4] is 5-hydroxytryptamine receptor 2A (Homo sapiens, UniProt P28223). In words: Displacement of [3H]ketanserin from human 5HT2A receptor expressed in cells. Type of data set: cell-based.
The target of a further data set is D(3) dopamine receptor (Homo sapiens, UniProt P35462). In words: Displacement of [3H]spiperone from human dopamine D3 receptor expressed in cells. In kind it is cell-based.
Data set [5] concerns the target T1, 5-hydroxytryptamine receptor 6. In words: Antagonist activity at human 5HT6 receptor expressed in HeLa cells assessed as inhibition of 5-HT-stimulated cAMP accumulation. In kind it is functional, cell-based. On the technique in general: Changes in cAMP serve as a functional read-out for many G protein-coupled receptors.
In data set [6] the target is T3, 5-hydroxytryptamine receptor 1A (Homo sapiens, UniProt P08908).
T3 sequence (P08908 whole entry): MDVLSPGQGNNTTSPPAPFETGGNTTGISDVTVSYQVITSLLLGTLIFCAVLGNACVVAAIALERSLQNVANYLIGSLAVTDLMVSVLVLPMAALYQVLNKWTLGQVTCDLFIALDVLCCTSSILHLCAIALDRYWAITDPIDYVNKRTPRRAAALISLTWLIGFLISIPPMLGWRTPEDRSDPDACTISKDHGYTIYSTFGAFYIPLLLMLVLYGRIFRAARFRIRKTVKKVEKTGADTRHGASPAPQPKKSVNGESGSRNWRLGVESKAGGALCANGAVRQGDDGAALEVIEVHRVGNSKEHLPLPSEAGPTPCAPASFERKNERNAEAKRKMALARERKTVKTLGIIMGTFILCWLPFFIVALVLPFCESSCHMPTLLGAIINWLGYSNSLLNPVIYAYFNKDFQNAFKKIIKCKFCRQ
In words: Displacement of [3H]8-OH-DPAT from human 5HT1A receptor expressed in cells. Type of data set: cell-based.

Another data set has as its target D(2) dopamine receptor (Homo sapiens, UniProt P14416). In words: Displacement of [3H]spiperone from human dopamine D2 receptor expressed in cells. In kind it is cell-based.
Data set [7] deals with T4, 5-hydroxytryptamine receptor 2C (Homo sapiens, UniProt P28335).
T4 sequence (P28335 whole entry): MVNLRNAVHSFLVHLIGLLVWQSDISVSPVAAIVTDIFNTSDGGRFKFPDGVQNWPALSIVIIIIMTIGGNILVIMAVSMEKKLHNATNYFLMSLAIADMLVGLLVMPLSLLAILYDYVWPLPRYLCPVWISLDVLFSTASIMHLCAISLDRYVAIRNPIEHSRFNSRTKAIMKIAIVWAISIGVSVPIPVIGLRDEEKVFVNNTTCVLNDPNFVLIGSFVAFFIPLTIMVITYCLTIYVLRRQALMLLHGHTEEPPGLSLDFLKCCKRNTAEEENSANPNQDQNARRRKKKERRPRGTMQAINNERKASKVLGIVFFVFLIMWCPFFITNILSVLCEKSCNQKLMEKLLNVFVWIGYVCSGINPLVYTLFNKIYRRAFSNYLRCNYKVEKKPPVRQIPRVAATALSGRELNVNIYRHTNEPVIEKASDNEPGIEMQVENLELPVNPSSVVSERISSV
In words: Displacement of [3H]mesulergine from human 5HT2C receptor expressed in cells. In kind it is cell-based.

A short description of data set [8]: Lipophilicity, log D of the compound. In kind it is physicochemical. Conditions: octanol/water.

Chain of D(3) dopamine receptor (P35462 whole entry): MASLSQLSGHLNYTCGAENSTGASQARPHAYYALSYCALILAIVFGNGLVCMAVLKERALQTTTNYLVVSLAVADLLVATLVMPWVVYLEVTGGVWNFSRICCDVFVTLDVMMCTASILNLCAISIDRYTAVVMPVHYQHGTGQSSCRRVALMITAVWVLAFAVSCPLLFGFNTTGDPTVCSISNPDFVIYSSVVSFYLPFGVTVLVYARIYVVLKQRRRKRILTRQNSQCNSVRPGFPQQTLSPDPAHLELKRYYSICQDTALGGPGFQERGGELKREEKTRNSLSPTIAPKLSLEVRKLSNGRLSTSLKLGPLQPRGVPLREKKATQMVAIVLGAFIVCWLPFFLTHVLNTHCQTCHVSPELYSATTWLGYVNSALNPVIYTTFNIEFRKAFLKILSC
Chain of D(2) dopamine receptor (P14416 whole entry): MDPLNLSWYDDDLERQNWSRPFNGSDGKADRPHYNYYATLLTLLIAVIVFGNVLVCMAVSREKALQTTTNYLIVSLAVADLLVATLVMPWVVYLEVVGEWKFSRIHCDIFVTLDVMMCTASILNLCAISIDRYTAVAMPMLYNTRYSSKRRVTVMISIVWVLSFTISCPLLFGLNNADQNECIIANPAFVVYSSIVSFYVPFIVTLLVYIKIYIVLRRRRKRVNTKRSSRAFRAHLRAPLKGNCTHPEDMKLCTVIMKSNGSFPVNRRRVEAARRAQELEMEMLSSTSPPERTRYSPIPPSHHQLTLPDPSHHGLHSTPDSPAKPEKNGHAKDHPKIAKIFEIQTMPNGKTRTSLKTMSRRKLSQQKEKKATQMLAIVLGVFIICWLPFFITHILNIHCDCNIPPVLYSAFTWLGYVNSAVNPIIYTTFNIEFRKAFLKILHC
T1 sequence (P50406 whole entry): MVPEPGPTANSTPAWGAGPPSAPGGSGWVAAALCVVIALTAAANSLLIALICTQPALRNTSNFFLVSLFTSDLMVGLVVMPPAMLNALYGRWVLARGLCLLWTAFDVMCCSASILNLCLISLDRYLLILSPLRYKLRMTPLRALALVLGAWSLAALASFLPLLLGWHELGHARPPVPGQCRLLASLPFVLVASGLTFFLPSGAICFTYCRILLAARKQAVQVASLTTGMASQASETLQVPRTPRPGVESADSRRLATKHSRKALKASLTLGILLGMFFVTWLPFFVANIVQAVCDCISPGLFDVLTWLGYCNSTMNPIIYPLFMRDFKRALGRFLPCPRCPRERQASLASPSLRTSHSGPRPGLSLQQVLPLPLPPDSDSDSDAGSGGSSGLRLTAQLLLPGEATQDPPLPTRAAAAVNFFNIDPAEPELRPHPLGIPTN
Chain of 5-hydroxytryptamine receptor 7 (P34969 whole entry): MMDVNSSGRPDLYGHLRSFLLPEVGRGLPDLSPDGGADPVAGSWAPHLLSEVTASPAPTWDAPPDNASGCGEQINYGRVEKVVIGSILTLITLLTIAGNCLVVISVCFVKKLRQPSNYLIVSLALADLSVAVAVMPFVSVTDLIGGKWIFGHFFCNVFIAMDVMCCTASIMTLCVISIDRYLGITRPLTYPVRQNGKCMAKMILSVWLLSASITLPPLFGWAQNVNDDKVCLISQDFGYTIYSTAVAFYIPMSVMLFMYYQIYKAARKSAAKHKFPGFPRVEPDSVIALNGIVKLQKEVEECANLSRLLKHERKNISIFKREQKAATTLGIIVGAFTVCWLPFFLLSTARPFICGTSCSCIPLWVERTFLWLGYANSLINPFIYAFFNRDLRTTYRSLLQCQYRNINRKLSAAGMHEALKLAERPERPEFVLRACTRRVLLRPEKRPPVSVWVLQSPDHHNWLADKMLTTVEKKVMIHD
Chain of 5-hydroxytryptamine receptor 2A (P28223 whole entry): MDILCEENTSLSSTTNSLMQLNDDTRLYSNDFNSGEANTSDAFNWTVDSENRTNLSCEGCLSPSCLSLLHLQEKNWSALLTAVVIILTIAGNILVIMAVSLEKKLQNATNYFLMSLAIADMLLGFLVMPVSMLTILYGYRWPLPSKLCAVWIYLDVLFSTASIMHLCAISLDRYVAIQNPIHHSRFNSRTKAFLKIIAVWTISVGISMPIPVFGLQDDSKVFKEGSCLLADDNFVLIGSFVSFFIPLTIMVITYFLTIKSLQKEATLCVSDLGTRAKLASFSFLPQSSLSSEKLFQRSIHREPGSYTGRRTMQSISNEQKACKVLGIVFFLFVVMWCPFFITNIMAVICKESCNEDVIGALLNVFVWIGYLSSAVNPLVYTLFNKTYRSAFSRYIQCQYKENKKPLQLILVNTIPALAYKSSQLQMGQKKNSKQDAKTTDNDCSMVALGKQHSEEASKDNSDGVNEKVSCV

For `Cc1ccc(S(=O)(=O)N2CCC(=O)c3c(N4CCN(C)CC4)cccc32)cc1`, the pIC50 (in general, the IC50 on a negative log10 scale, so that one unit is a factor of ten) in [1] was 6.89.

Take `CSc1nn2c(N3CCNCC3)c3c(nc2c1S(=O)(=O)c1ccccc1)CCC3`: in data set [2], the negative-log Ki (pKi) (in general, −log10 of the Ki, conventionally taken in molar units) is 8.60.

Compound `CN1CCN(c2ccc3c(c2)C(=O)CCN3S(=O)(=O)c2ccc3ccccc3c2)CC1` showed a pIC50 in data set [1] of 6.51.

`CN1CCN(c2ccc3c(c2)N(S(=O)(=O)c2ccc4ccccc4c2)CCC3=O)CC1`: the pIC50 was 6.84 in data set [3]; 5.44 at D(4) dopamine receptor; 7.59 in [1]; 6.44 in data set [4]; 5.89 on D(3) dopamine receptor; 6.73 in data set [5]. Further, the pIC50 is 6.17 in data set [6], less than 5.00 at D(2) dopamine receptor and 5.29 in data set [7].

Consider `CN1CCN(c2cccc3c2C(=O)CCN3S(=O)(=O)c2ccc3ccccc3c2)CC1`, for which the pIC50 in data set [3] was 6.21; at D(4) dopamine receptor it was 5.75; in [1], 7.21; in [4], 6.12; at D(3) dopamine receptor it was 5.53; in [6] it was 6.48. Also, the pIC50 at D(2) dopamine receptor was less than 5.00; in data set [7] it was 6.36.

On to `CC1CC(=O)c2ccc(N3CCN(C)CC3)cc2N1S(=O)(=O)c1ccc2ccccc2c1` (stereo not given), for which the pIC50 in data set [3] was less than 5.00; at D(4) dopamine receptor, less than 5.00; in data set [1] it was 7.55; in data set [4] it was 5.84; at D(3) dopamine receptor, 5.82; in [6] it was 5.80. For the same compound, the pIC50 at D(2) dopamine receptor is 6.87; in data set [7] it was 6.25. The pH-dependent lipophilicity (logD) – broadly, lipophilicity at a set pH, counting ionised and neutral species – in data set [8] came to 3.2.

In turn, `C[C@@H]1CC(=O)c2ccc(N3CCN(C)CC3)cc2N1S(=O)(=O)c1ccc2ccccc2c1` had a pIC50 in [1] of 7.37.

In data set [1], `C[C@H]1CC(=O)c2ccc(N3CCN(C)CC3)cc2N1S(=O)(=O)c1ccc2ccccc2c1` showed a pIC50 of 7.77.

On to `COc1cc2c(cc1N1CCN(C)CC1)N(S(=O)(=O)c1ccc3ccccc3c1)CCC2=O`, for which, in data set [1], the pIC50 is 6.78.

In data set [1], `Cc1c(S(=O)(=O)N2CCC(=O)c3ccc(N4CCN(C)CC4)cc32)sc2ccc(Cl)cc12` gave a pIC50 of 6.38.

For the compound `CC1CC(=O)c2c(N3CCN(C)CC3)cccc2N1S(=O)(=O)c1ccc2ccccc2c1` (stereo not given), the pIC50 was 5.70 in data set [3]; 5.26 at D(4) dopamine receptor; 8.10 in data set [1]; 7.32 in data set [4]; 6.32 at D(3) dopamine receptor; 5.92 in [6]. Moreover, the pIC50 at D(2) dopamine receptor is less than 5.00; in data set [7], 7.52. The logD in data set [8] is 3.6.

In turn, `C[C@@H]1CC(=O)c2c(N3CCN(C)CC3)cccc2N1S(=O)(=O)c1ccc2ccccc2c1` showed a pIC50 in data set [1] of 6.45.

On to `C[C@H]1CC(=O)c2c(N3CCN(C)CC3)cccc2N1S(=O)(=O)c1ccc2ccccc2c1`, for which the pIC50 in [1] was 8.15.

Turning to `CCC1CC(=O)c2c(N3CCN(C)CC3)cccc2N1S(=O)(=O)c1ccc2ccccc2c1` (stereo not given), the pIC50 in data set [3] is less than 5.00; at D(4) dopamine receptor, less than 5.00; in data set [1], 8.05; in [4] it was 6.34; at D(3) dopamine receptor, 6.21; in data set [6] it was 6.00. Besides, the negative logarithm of the IC50 (pIC50) at D(2) dopamine receptor was less than 6.00; in data set [7] it was 8.40.

In data set [1], `Cc1ccc2c(c1N1CCN(C)CC1)C(=O)CC(C)N2S(=O)(=O)c1ccc2ccccc2c1` (stereo not given) had a negative-log IC50 (pIC50) of 7.82.

On to `Cc1cc(N2CCN(C)CC2)c2c(c1)N(S(=O)(=O)c1ccc3ccccc3c1)C(C)CC2=O` (stereo not given), for which the pIC50 in data set [3] is less than 5.00; at D(4) dopamine receptor, less than 5.00; in data set [1], 7.96; in data set [4], 6.15; at D(3) dopamine receptor it was 6.74; in data set [6], 5.91. Further, the pIC50 at D(2) dopamine receptor was 5.75; in [7], 7.72.

`CN1CCN(c2cc(Cl)cc3c2C(=O)CCN3S(=O)(=O)c2ccc3ccccc3c2)CC1`: the negative logarithm of the IC50 (pIC50) in data set [1] is 7.33.

`CN1CCN(c2cc(Br)cc3c2C(=O)CCN3S(=O)(=O)c2ccc3ccccc3c2)CC1` had a pIC50 in [1] of 7.24.

`CC1CC(=O)c2c(N3CCNCC3)cccc2N1S(=O)(=O)c1ccc2ccccc2c1` (stereo not given) showed a pIC50 in data set [1] of 7.38.

Regarding `COc1ccc(NS(=O)(=O)c2sc3ccc(Cl)cc3c2C)cc1N1CCN(C)CC1`, the logD in [8] was determined as 2.99.

The values are drawn from ChEMBL document CHEMBL1641464, “1-(Arylsulfonyl)-2,3-dihydro-1H-quinolin-4-one derivatives as 5-HT(6) serotonin receptor ligands” (Bioorg Med Chem Lett, 2011).
